Data published in US12133900B2, “Synthesis and composition of amino acid linking groups conjugated to compounds used for the targeted imaging of tumors” (Purdue Research Foundation, priority 2013, dated 2024).
“Also recorded” adds a separate entry of the source.

Columns and labels:
[1] = test system: FR-positive IGROV tumor xenografts; assay: Imaging and biodistribution, IGROV ovarian xenograft; format: in vivo, mice; details: 2 nmol, 2 h
Description: Seven-week-old female nu/nu mice were inoculated subcutaneously with KB (1.0×10^6/mouse in RPM11640 medium), IGROV (5.0×10^6/mouse in 50% high concentrated matrigel+RPM11640 medium), SKOV3 (5.0×10^6/mouse in RPM11640 medium), OVCAR3 (5.0×10^6/mouse in RPM11640 medium), MDA-MB231 (1.0×10^6/mouse in RPM11640 medium), M109 (1.0×10^6/mouse in RPM11640 medium) or A549 cells (2.0×10^6/mouse in RPM11640 medium) on the shoulder. Growth of the tumors was measured in perpendicular directions every 2 days using a caliper (body weights were monitored on the same schedule), and the volumes of the tumors were calculated as 0.5×L×W^2 (L=longest axis and W=axis perpendicular to L in millimeters). Once tumors reached approximately 300-400 mm3 in volume, animals (3-5 mice/group) were intravenously injected with the compound of interest in PBS (for dose escalation in KB tumor model: 0.3-90 nmol, for time dependent in KB tumor model: 2 or 10 nmol, and for general whole body imaging and biodistribution for all tumor models: 2 nmol, in 100 μL in PBS per mouse). For whole body imaging and biodistribution studies, animals were euthanized 2 hours after administration of the compound of interest by CO2 asphyxiation. For time dependent studies, animals were imaged under anesthesia using isoflurane. Whole body imaging (intact tumor) experiments was then performed using a Caliper IVIS Lumina II Imaging Station with Living Image 4.0 software (PerkinElmer Inc, MA).
Following whole body imaging, animals were dissected and selected tissues (heart, lung, liver, spleen, kidneys, stomach, small intestine, large intestine, muscle, skin, and tumor) were analyzed for fluorescence activity using IVIS imager using same settings as in whole body imaging.

[2] = test system: folate receptor positive KB tumor xenografts; assay: Whole body imaging and tissue biodistribution, KB tumor xenografts; format: in vivo, mice; details: for tumor uptake: 0.3 nmol dose i.v.; for non-specific uptake: 60 and 90 nmol doses i.v.
Description: (§1) Seven-week-old female nu/nu mice were inoculated subcutaneously with KB cells (1.0×10^6/mouse in folate free RPM11640 medium) on the shoulder. […] […] Whole body imaging (intact tumor) experiments were then performed using a Caliper IVIS Lumina II Imaging Station with Living Image 4.0 software (PerkinElmer Inc, MA). Settings for imaging:—lamp level: medium; excitation: 745 nm; emission: 830 nm; epi illumination; binning: 4 (M), FOV=12.5; f-stop=2; acquisition time=1 s.
(§2) Following whole body imaging, animals were dissected and selected tissues (heart, lung, liver, spleen, kidneys, stomach, small intestine, large intestine, muscle, skin, tumor) were analyzed for fluorescence activity using IVIS imager as before. Settings for imaging: lamp level: medium; excitation: 745 nm; emission: 830 nm; epi illumination; binning: 4 (M), FOV=12.5; f-stop=2; acquisition time=1 s.
as §1, with “shoulder. Growth of the tumors was measured in perpendicular directions every 2 days using a caliper (body weights were monitored on the same schedule), and the volumes of the tumors were calculated as 0.5×L×W^2 (L=longest axis and W=axis perpendicular to L in millimeters).” for “shoulder.”, “ICG (830 nm);” for “830 nm;”
as §2, with “skin, and” for “skin,”, “imaging:—lamp” for “imaging: lamp”, “emission:ICG (830 nm);” for “emission: 830 nm;”
Five-week-old female nu/nu mice were inoculated subcutaneously with KB cells (1.0×10^6/mouse in RPMI medium) on their shoulders. Growth of the tumors was measured in two perpendicular directions every 2 days using a caliper (body weights were monitored on the same schedule), and the volumes of the tumors were calculated as 0.5×L×W^2 (L) longest axis and W) axis perpendicular to L in millimeters). Once tumors reached between 400 and 500 mm3 in volume, animals were treated with folate receptor-targeted NIR dye conjugate (10 nmol) in phosphate buffered saline (100 μL). […]
Animal imaging experiments were performed using a Caliper Ivis Lumina II Imaging Station with Living Image 4.0 software. Settings for imaging Alexa Fluor 647 and DyLight 680 conjugates: lamp level: high; excitation: 605; emission: Cy5.5; epi illumination; binning: (M) 4; FOV=7.5; f-stop=4; acquisition time=1 s. Settings for imaging DyLight 750 and IR800CW conjugates: lamp level: high; excitation: 745; emission: ICG; epi illumination; binning: (M) 4, FOV=12.5; f-stop=4; acquisition time=1 s.
Seven-week-old female nu/nu mice were inoculated subcutaneously with KB cells (1.0×10^6/mouse in folate free RPM11640 medium) on the shoulder. Growth of the tumors was measured in perpendicular directions every 2 days using a caliper (body weights were monitored on the same schedule), and the volumes of the tumors were calculated as 0.5×L×W^2 (L=longest axis and W=axis perpendicular to L in millimeters). Once tumors reached between 400 and 500 mm3 in volume, animals (5 mice/group) were intravenously injected with 10 nmol of OTL-0038 or OTL-0039 in phosphate buffered saline (100 μL). After 2.5 hours, animals were euthanized by CO2 asphyxiation. Whole body imaging (intact tumor) experiments were then performed using a Caliper IVIS Lumina II Imaging Station with Living Image 4.0 software (PerkinElmer Inc, MA). […]

[3] = 10 nmol i.v., 2 h, listed as OTL38
[4] = 10 nmol i.v., 2 h, listed as Pte-Tyr-S0456
[5] = 10 nmol tail vein, live imaging
[6] = dose escalation 0.3-90 nmol i.v.

With `CC1(C)C(/C=C/C2=C(Oc3ccc(C[C@H](NC(=O)c4ccc(NCc5cnc6nc(N)[nH]c(=O)c6n5)cc4)C(=O)[O-])cc3)C(=C/C=C3\N(CCCCS(=O)(=O)[O-])c4ccc(S(=O)(=O)[O-])cc4C3(C)C)/CCC2)=[N+](CCCCS(=O)(=O)[O-])c2ccc(S(=O)(=O)[O-])cc21.[H+].[H+].[H+].[H+]` [OTL-0038, Pte-Tyr-S0456] the ex-vivo tissue biodistribution [1] was “highest fluorescence intensities were observed in FR-positive tumors and kidneys”, the tumor-to-normal tissue ratios [1] was “excellent tumor-to-normal tissue ratios” and the “whole body imaging: accumulation” value [1] was “accumulated mainly in the FR-positive IGROV tumor xenografts”. For the same compound, the tumor uptake [2] was “lower uptake in folate receptor-positive tumors (weak fluorescence intensity)”, the tumor uptake ([2]; listed as OTL38) was “lower uptake in FR-positive tumors (weak fluorescence intensity)” and the “whole body imaging, tissue biodistribution and tumor-to-tissue” value ([2]; 2 nmol dose, 2 h post injection) was “excellent”. For the same compound, the “time in which nonspecific skin tissue uptake clears” value ([2]; 10 nmol) was at most 24 h, the “tumor fluorescence intensity, direct comparison” value (shortened to “tumor fluorescence intensity”) ([2]; 10 nmol i.v., 2 h) was “brighter than the mice treated with the other conjugates” and the tumor-to-tissue ratios ([2]; 10 nmol i.v., 2 h) was “excellent tumor-to-tissue ratios except the skin”. For the same compound, the “whole body imaging: accumulation” value ([2]; 10 nmol i.v., 2 h) was “accumulated predominantly in the folate receptor-positive tumors”, the “ex vivo tissue biodistribution” value [2, 3] was “highest fluorescence intensity was observed in FR-positive tumors with no accumulation in the other tissues except the kidneys and skin” and the “whole body imaging: accumulation” value [2, 3] was “accumulated predominantly in the FR positive KB tumors”. The “ex vivo tissue biodistribution” value [2, 4] was “accumulated predominantly in the folate receptor positive tumors with no substantial fluorescence activity in other organs except the kidneys”, the “tumor fluorescence intensity” value [2, 4] was “competitive, in terms of fluorescent brightness, to all folate-NIR conjugates” and the “whole body imaging: accumulation” value [2, 4] was “mainly accumulated in the folate receptor positive tumors and no fluorescence was observed in other tissues”. The “ex vivo tissue biodistribution” value ([2]; 10 nmol i.v., 2.5 h) was “highest fluorescence intensity was observed in FR-positive tumors with no accumulation in the other tissues except the kidneys; also recorded: mainly accumulated in folate receptor positive tumor xenografts and kidneys”, the “tumor fluorescence intensity” value ([2]; 10 nmol i.v., 2.5 h) was “brighter (higher); also recorded: beneficial aspects relative to folate-LS288, folate-IR800, and folate-ZW800 in tumor accumulated fluorescence intensity” and the “tumor-to-normal tissue fluorescence ratios” value ([2]; 10 nmol i.v., 2.5 h) was “excellent tumor-to-normal tissue fluorescence ratios”. For the same compound, the “whole body imaging: accumulation” value ([2]; 10 nmol i.v., 2.5 h) was “accumulated predominantly in the folate receptor positive tumors”, the “time point at which clearing from the skin starts” value [2, 5] was 2 h and the “time to saturate FR” value [2, 5] was 2 to 4 h. The “time to accumulate in FR positive tumor and kidneys” value ([2]; 10 nmol tail vein, live imaging 15 min to 48 h) was at most 1 h, the skin fluorescence ([2]; 10 nmol, 24-48 hour time points) was “minimal fluorescence” and the “uptake in sliced (dissected) tumors” value ([2]; 10 nmol, 2 h) was “accumulated homogeneously in all tumor cells”. For the same compound, the “fluorescence intensity in the skin” value ([2]; 10 nmol, 24 h post injection, ImageJ) was “minimal”, the fluorescence in tumor ([2]; 10 nmol, 48 hour time point) was “remains high” and the non-specific uptake [2] was “higher non-specific uptake”. The non-specific uptake ([2]; listed as OTL38) was “higher non-specific uptake in healthy tissues”, the “highest dose to obtain best tumor-to-background ratio” value [2, 6] was 30 nmol and the “lowest dose to obtain good tumor-to-background ratio” value [2, 6] was 1.0 nmol. For the same compound, the kidney uptake ([2]; dose range 0.3-10 nmol) was “higher kidney uptake”, the “tumor uptake and tumor-to-normal tissue ratio” value ([2]; dose range 1.0-30.0 nmol i.v.) was “tumor uptake and excellent tumor-to-normal tissue ratio” and the kidney uptake ([2]; dose range 30-90 nmol) was “less kidney uptake (relative to tumor uptake)”.
